Here are results for eleven molecules from ChEMBL document CHEMBL1201862, “PubChem BioAssay data set” (2004).

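Growth conditions: 96-well plates. Treatment: test compound, 48 hours, 5 concentrations. Analysis: linear interpolation between bracketing concentrations; unreached endpoints set to highest concentration. GI50 is the concentration that inhibits growth by half.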 Active and inactive are the calls of the source. No stated cut-off is given here; in the data, active = GI50 up to about 1.1 µM and inactive = higher.

Holding throughout (experiment): NCI-60 cell line screen, 48 h
In test [1] the test system is K562.
Test [2] concerns RXF 393.
Test [3] concerns HCC 2998.
In test [4] the test system is HOP-92.
Test [5] concerns SK-OV-3.
Test [6] has as its system SN12C.
The test system of test [7] is HOP-62.
In test [8] the test system is OVCAR-8.
In test [9] the test system is CCRF-CEM.
The test system of test [10] is SK-MEL-2.
Test [11] concerns NCI-H23.
In test [12] the test system is NCI-H522.
The subject of test [13] is UACC-257.
In test [14] the test system is SK-MEL-28.
The test system of test [15] is OVCAR-4.
Test [16] deals with EKVX.
The test system of test [17] is SW-620.
The test system of test [18] is SF-268.
The subject of test [19] is SNB-75.
Test [20] has as its system TK-10.

For the molecule `O=C(CCc1cccc(O)c1)NCCCNC(=O)CCc1cccc(O)c1`, the GI50 in [1] is > 100 µM (inactive); in test [2], > 100 µM (inactive); in test [3], > 100 µM (inactive); in test [4], 50.9 µM (inactive); in test [5], > 100 µM (inactive); in test [6], > 100 µM (inactive). The GI50 in test [7], in test [8], in test [9], in test [10], in [11] and in test [12] was > 100 µM (inactive) each time. Further, the GI50 in [13], in test [14], in test [15], in test [16], in test [17] and in test [18] was > 100 µM (inactive) throughout.
As to `COc1cc(CN[C@H]2CCc3cc(OC)c(OC)c(OC)c3-c3ccc(SC)c(=O)cc32)cc(OC)c1`, the GI50 in test [1] is 0.0317 µM (active); in test [2], 0.0266 µM (active); in [3], 0.0319 µM (active); in test [4], 0.187 µM (active); in [5], 0.0284 µM (active); in [6], 0.0367 µM (active). Further, the GI50 was 0.0562 µM (active) in test [7]; 0.0243 µM (active) in test [19]; 0.0481 µM (active) in [8]; 0.0807 µM (active) in test [20]; 0.0463 µM (active) in [10]; 0.0286 µM (active) in [11]. For the same molecule, the GI50 in test [12] is 0.0245 µM (active); in test [13], 0.0566 µM (active); in [14], 0.0386 µM (active); in [15], 0.0731 µM (active); in test [16], 0.0828 µM (active); in [17] it was 0.0347 µM (active). Further, in [18], the GI50 is 0.043 µM (active).
Regarding `COC(=O)/C=C/c1ccc2c(c1)CC1(Cc3ccccc3C1)C2`, the GI50 in test [1] is 37.5 µM (inactive); in [2] it was 16.5 µM (inactive); in test [3], > 100 µM (inactive); in test [4], > 100 µM (inactive); in test [5], > 100 µM (inactive); in [6] it was > 100 µM (inactive). The GI50 in test [7] is > 100 µM (inactive); in test [8], > 100 µM (inactive); in test [20] it was > 100 µM (inactive); in test [9], 28 µM (inactive); in test [10], > 100 µM (inactive); in test [11], 55.7 µM (inactive). Also, the GI50 in [12] is 56.9 µM (inactive); in [13] it was > 100 µM (inactive); in test [15] it was > 100 µM (inactive); in test [16] it was 23.6 µM (inactive).
`CCOC(=O)CCc1c(C)c2c(OC)cc(OC)cc2oc1=O`: the GI50 in [2] was 33.9 µM (inactive); in test [3], > 100 µM (inactive); in test [4], 22.3 µM (inactive); in [6] it was 79.4 µM (inactive); in [7] it was > 100 µM (inactive); in test [19] it was 21.5 µM (inactive). Besides, the GI50 in test [8], in test [20], in [10], in [11], in test [12] and in test [13] was > 100 µM (inactive) each time. Also, the GI50 in test [14] was > 100 µM (inactive); in test [15], > 100 µM (inactive); in test [16] it was 54.7 µM (inactive); in [17], > 100 µM (inactive); in test [18] it was 34.4 µM (inactive).
For the molecule `NC(=S)NNC(=O)CCC(=O)Nc1ccc(Cl)cc1Cl`, the GI50 in [1] was 17.7 µM (inactive); in test [2] it was > 100 µM (inactive); in test [3], > 100 µM (inactive); in test [4] it was > 100 µM (inactive); in [5], > 100 µM (inactive); in test [6], > 100 µM (inactive). For the same molecule, the GI50 in test [7] is > 100 µM (inactive); in test [19], > 100 µM (inactive); in test [8] it was > 100 µM (inactive); in test [20], > 100 µM (inactive); in test [9] it was > 100 µM (inactive); in [10], 42.9 µM (inactive). Also, the GI50 in test [11], in [12], in test [13], in test [14], in test [15] and in test [17] was > 100 µM (inactive) in each case. Also, in test [18], the GI50 was > 100 µM (inactive).
For `O=[N+]([O-])C1C2C=CC(C2)[C@H]1c1ccc(Cl)cc1Cl` (some centres not stated), the GI50 was 35.4 µM (inactive) in test [1]; 20.9 µM (inactive) in [2]; 75.5 µM (inactive) in [3]; 23.3 µM (inactive) in [4]; 67 µM (inactive) in test [6]; > 10 µM (inactive) in test [7]. Besides, the GI50 in test [19] was 11.4 µM (inactive); in test [8], 57.1 µM (inactive); in test [20], 69.7 µM (inactive); in test [9], 39.4 µM (inactive); in test [10], 44.9 µM (inactive); in test [11] it was 36.7 µM (inactive). In addition, the GI50 was > 10 µM (inactive) in test [12]; 31.8 µM (inactive) in test [13]; 19.7 µM (inactive) in [14]; > 10 µM (inactive) in test [15]; 74.5 µM (inactive) in test [17]; 45.1 µM (inactive) in test [18].
Regarding `COc1ccc(/C=C/C(=N/NC(=O)N/N=C(/C=C/c2ccc(OC)cc2)C(C)(C)CN2CCCCC2)C(C)(C)CN2CCCCC2)cc1`, the GI50 was 0.467 µM (active) in test [1]; 1.35 µM (inactive) in test [2]; 1.74 µM (inactive) in [3]; 1.47 µM (inactive) in [4]; 1.98 µM (inactive) in test [5]; 2.7 µM (inactive) in [6]. Further, the GI50 in test [7] was 2.15 µM (inactive); in test [19], 1.37 µM (inactive); in test [8], 1.8 µM (inactive); in [20], 2.01 µM (inactive); in test [9], 1.27 µM (inactive); in [10] it was 1.62 µM (inactive). In addition, the GI50 in [11] was 3.03 µM (inactive); in test [12], 2.07 µM (inactive); in [13], 1.86 µM (inactive); in [14], 1.56 µM (inactive); in test [15], 1.88 µM (inactive); in test [16] it was 2.8 µM (inactive). In [17], the GI50 was 2.11 µM (inactive).
As to `Sc1ncnc2c1ncn2Cc1ccco1`, the GI50 in test [1], in [2], in test [3], in [4], in test [5] and in test [6] was > 100 µM (inactive) throughout. The GI50 in test [7], in test [19], in test [8], in test [20], in test [10] and in test [11] was > 100 µM (inactive) throughout. The GI50 in [12], in test [13], in test [14], in [15], in [16] and in test [17] was > 100 µM (inactive) in each case. Also, the GI50 in test [18] was > 100 µM (inactive).
Turning to `C/C(=N/NC(=S)Nc1ccc([N+](=O)[O-])cc1)c1cccc(/C(C)=N\NC(=S)Nc2ccc([N+](=O)[O-])cc2)n1`, the GI50 was 0.569 µM (active) in test [1]; 0.53 µM (active) in [2]; 1.02 µM (active) in test [3]; 0.782 µM (active) in test [4]; 2.13 µM (inactive) in test [5]; 0.671 µM (active) in test [6]. Also, the GI50 in test [7] was 0.752 µM (active); in test [19] it was 3.3 µM (inactive); in test [8] it was 0.329 µM (active); in [20], 0.577 µM (active); in test [9], 0.318 µM (active); in test [10] it was 3.99 µM (inactive). Also, the GI50 in test [11] was 0.877 µM (active); in test [12] it was 0.628 µM (active); in test [13], 1.09 µM (active); in test [14], > 100 µM (inactive); in test [15], 0.959 µM (active); in test [16], 0.658 µM (active). In addition, the GI50 in test [17] was 0.364 µM (active).
Consider `COC(=O)CCC(NC(=S)N/N=C(\C)c1nccs1)C(=O)OC` (configuration not stated), for which the GI50 in test [1] is 16.2 µM (inactive); in [2] it was 42.2 µM (inactive); in [3] it was 52.5 µM (inactive); in test [4], > 100 µM (inactive); in test [5], > 100 µM (inactive); in [6] it was > 100 µM (inactive). In addition, the GI50 was 48.8 µM (inactive) in [7]; 68.2 µM (inactive) in test [19]; 68.4 µM (inactive) in test [8]; > 100 µM (inactive) in [20]; > 100 µM (inactive) in test [10]; > 100 µM (inactive) in test [11]. The GI50 in test [12] was 26.4 µM (inactive); in test [13] it was > 100 µM (inactive); in test [14], > 100 µM (inactive); in test [15], 45.8 µM (inactive); in test [16], 67.6 µM (inactive); in test [17], 47.5 µM (inactive). For the same molecule, the GI50 in test [18] was 56.6 µM (inactive).
As to `OC1(C(O)(c2ccc(-c3ccccc3)cc2)c2ccc(-c3ccccc3)cc2)CCCCC1`, the GI50 in [1] is > 100 µM (inactive); in test [2], > 100 µM (inactive); in [3], 85.3 µM (inactive); in test [4], > 100 µM (inactive); in [5], > 100 µM (inactive); in [6] it was > 100 µM (inactive). The GI50 in test [7], in test [19], in [8], in test [20], in test [10] and in test [11] was > 100 µM (inactive) in each case. The GI50 in test [12], in test [13], in test [14], in test [15], in test [16] and in test [17] was > 100 µM (inactive) in each case. For the same molecule, the GI50 in [18] was > 100 µM (inactive).
